Data published in patent publication US6911470B1, “Polyoxometalate compounds as antiviral agents” (priority 1988, dated 2005).
Where two headings read alike, the source gives them in different places.

Tests used:
[1] = test system: Friend retrovirus, strain FV-PLS; assay: Splenomegaly model in BALB/c mice infected with Friend virus; conditions: for % Effectiveness / Mean Spleen wt. (mg) ± SD: sacrifice day 16
Protocol: Tests were conducted in whole infected mice using one of the compounds to the present invention. The methodology of this test is the same as was used in Ruprecht et al, Nature 323, 467-469, except that Friend virus was used instead of Rauscher virus.
Comparison of Toxicity of Polyoxometalate Compounds Mice. Female BALB/c mice (3 to 4 weeks old), obtained from Charles River Laboratories (Raleigh, N.C.), were acclimatized in the animal facility for two weeks. They-were then inoculated (200 μl) into the peritoneal cavity with Friend retrovirus, strain FV-PLS. A virus inoculum [about 100 focus forming units (FFU)/mouse] was selected which caused a splenomegaly rate of 100% on day 16 after virus inoculation in untreated animals. The virus titer of the inoculum was determined by a UV/XC assay.
In vivo antiviral experiments. Mice were inoculated intraperitoneally with virus at noon and then randomized into ten animals per treatment group. Five hours after virus inoculation, the mice were treated intraperitoneally with the compounds. Treatment was continued daily for 6 or 10 days. On day 16 after virus inoculation, the animals were sacrificed by carbon dioxide inhalation and their spleens removed under aseptic conditions and weighed.

[2] = background statement; AZT in a clinical setting; cited from earlier work
Friend, Spleen (EY-10) = assay: UV/XC assay for murine retroviruses in SC-1 cells; format: cell-based, murine retrovirus; conditions: Table 2, read-out: EC-50 Friend, Spleen (EY-10)
Protocol: UV/XC Assay for Murine Retroviruses Cells. Mouse embryo fibroblasts (SC-1) and XC cells were obtained from the American Type Culture Collection, Rockville, Md. The XC cell line was derived from a transplantable tumor induced in newborn White-Weston rats by the intramuscular injection of the Prague strain of Rous sarcoma virus. […] The cells were maintained in Eagle's minimum essential medium with Hanks balanced salt solution, supplemented with penicillin (100 U/ml), streptomycin (100 μg/ml), sodium bicarbonate (24 mM), Hepes (25 mM), and either 2 (maintenance) or 10 (growth) percent inactivated newborn or fetal calf serum.
Virus quantitation by UV-XC assay. The XC test (Rowe et al, Virology 42, 1136-1139, 1970) is a plaque-type of assay which tests for the presence and titer of B- and N-tropic murine leukemia viruses. Because these viruses produce no overt signs of infection of SC-1 mouse cells, it is necessary to overlay the virus producing culture with an indicator cell line, XC. The number of syncytia that are produced is a direct measure of the virus titer in FFU.
Six-well plates were seeded with 1×10^5 SC-1 mouse cells on the first day. On the following day the medium was removed and the inoculum (0.2 ml) was added in medium containing polybrene (4 μg/ml). For determining the antiviral activity of the compounds in culture, the virus dilution selected produced in untreated cultures about 80 foci per well. After 1 hour, the virus was removed and various concentrations of the drug were added. The plates were replenished with medium on the third and fifth days. The medium was removed on the eighth day and the cells exposed to UV irradiation (60 erg/mm^2 per sec) for 30 seconds. Medium containing 10^6 XC cells was then added to each plate. On the eleventh day, the plates were fixed with 10% buffered Formalin and stained with crystal violet. Comparison of the number of foci to those found in virus-infected cells receiving no drug allowed determination of whether a drug at a particular concentration was effective. Control cells without virus but receiving the drug provided an estimate of the drug's toxic effects as quantitated by using trypan blue staining.

SIV = assay: Activity against SIV; format: cell-based, simian immunodeficiency virus; conditions: Table 2
[3] = Comparison of toxicity of polyoxometalate compounds in mice (mortality, haematology); format: in vivo; parameters: MCV (mean corpuscular volume): unit not given here; conditions: BID × 6, 60 mkd i.p.
Excerpt: Comparison of Toxicity of Polyoxometalate Compounds Mice.
In vivo antiviral experiments. […] Treatment was continued daily for 6 or 10 days.

Cc1cn([C@H]2C[C@H](N=[N+]=[N-])[C@@H](CO)O2)c(=O)[nH]c1=O [Formula 22, 3′-azido-3′-deoxythymidine, reference compound]
% Mortality ([1]; 30 mkd IP QD × 10): 0% | % Effectiveness ([1]; 30 mkd IP QD × 10): 38.4% | Mean Spleen wt. (mg) ± SD ([1]; 30 mkd IP QD × 10): 1,249 ± 1,152 mg | % Mortality ([1]; 60 mkd IP QD × 10): 0% | % Effectiveness ([1]; 60 mkd IP QD × 10): 51.3% | Mean Spleen wt. (mg) ± SD ([1]; 60 mkd IP QD × 10): 988 ± 836 mg | adverse effect [2]: reversible bone marrow toxicity | EC50 (Friend, Spleen (EY-10); unidentified retrovirus, SC-1): 0.01 µM | EC50 (SIV): 0.00288 µM

(ArgH^+)m(H^+)4-mST, where m=1-4 [(ARGH^+)nH^+(4−n)ST]
EC50 (Friend, Spleen (EY-10)): 0.99 µM | Hct (hematocrit) ([3]; bled on day 17): 18.16 ± 6.02% | Hgb (hemaglobin) ([3]; bled on day 17): 7.08 ± 2.51 g/dL | MCH ([3]; bled on day 17): 17.8 ± 1.6 pg | MCHC (mean corpuscular hemoglobin concentration) ([3]; bled on day 17): 38.62 ± 3.49 g/dL | MCV (mean corpuscular volume) ([3]; bled on day 17): 46.08 ± 0.45 | PLT (platelates) (×1000) ([3]; bled on day 17): 325 ×1000 | RBC (×1000000) ([3]; bled on day 17): 3.95 ± 1.31 ×1000000 | RDW (width of red cells) ([3]; bled on day 17): 36.68 ± 1.31% | WBC (×1000) ([3]; bled on day 17): 6.28 ± 2.19 ×1000 | Mortality ([3]; dead/total): 0/5

(NH4)4W10O32 [Formula 18]
EC50 (Friend, Spleen (EY-10)): 0.58 µM

H4SiW12O40 [Formula 3]
EC50 (Friend, Spleen (EY-10)): 0.17 µM

H5BW12O40 [Formula 4]
EC50 (Friend, Spleen (EY-10)): 0.18 µM
